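Tested at 5 concentrations; 48 h exposure; 96-well plates; endpoints linearly interpolated, else capped at highest concentration. GI50 is the concentration that inhibits growth by half.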 The source made the active and inactive calls. Rule as the data show it: active = GI50 up to about 1.1 µM and inactive = higher.
Columns and labels:
Test in all cases: inhibition of tumour cell growth, NCI panel, 48 h
TK-10 = test system: TK-10
COLO 205 = test system: COLO 205
OVCAR-5 = test system: OVCAR-5
T47D = test system: T47D
CAKI-1 = test system: CAKI-1
NCI/ADR-RES = test system: NCI/ADR-RES
UO-31 = test system: UO-31
MOLT-4 = test system: MOLT-4
A549 = test system: A549
RPMI-8226 = test system: RPMI-8226
HT-29 = test system: HT-29
OVCAR-3 = test system: OVCAR-3
SK-MEL-28 = test system: SK-MEL-28
SN12C = test system: SN12C
786-0 = test system: 786-0
MDA-MB-231 = test system: MDA-MB-231
SK-MEL-2 = test system: SK-MEL-2
IGROV-1 = test system: IGROV-1
MCF7 = test system: MCF7
ACHN = test system: ACHN

Structure (SMILES): CC1=NN(C(=O)CC(=O)Nc2ccccc2Cl)C(=O)C1/N=N/c1ccc(C(=O)O)cc1 (stereo not given)
- GI50 (TK-10): > 100 µM (inactive)
- GI50 (COLO 205): > 100 µM (inactive)
- GI50 (OVCAR-5): > 100 µM (inactive)
- GI50 (T47D): 53.2 µM (inactive)
- GI50 (CAKI-1): > 100 µM (inactive)
- GI50 (NCI/ADR-RES): > 100 µM (inactive)
- GI50 (UO-31): 62.8 µM (inactive)
- GI50 (MOLT-4): > 100 µM (inactive)
- GI50 (A549): > 100 µM (inactive)
- GI50 (RPMI-8226): > 100 µM (inactive)
- GI50 (HT-29): 7.73 µM (inactive)
- GI50 (OVCAR-3): > 100 µM (inactive)
- GI50 (SK-MEL-28): > 100 µM (inactive)
- GI50 (SN12C): > 100 µM (inactive)
- GI50 (786-0): > 100 µM (inactive)
- GI50 (MDA-MB-231): > 100 µM (inactive)
- GI50 (SK-MEL-2): > 100 µM (inactive)
- GI50 (IGROV-1): > 100 µM (inactive)
- GI50 (MCF7): > 100 µM (inactive)
- GI50 (ACHN): > 100 µM (inactive)

Structure (SMILES): O=c1[nH]nc(Cc2ccccc2)n1/N=C/c1ccco1
- GI50 (COLO 205): > 100 µM (inactive)
- GI50 (OVCAR-5): 80 µM (inactive)
- GI50 (T47D): > 100 µM (inactive)
- GI50 (CAKI-1): > 100 µM (inactive)
- GI50 (NCI/ADR-RES): > 100 µM (inactive)
- GI50 (UO-31): > 100 µM (inactive)
- GI50 (MOLT-4): 99.5 µM (inactive)
- GI50 (A549): > 100 µM (inactive)
- GI50 (RPMI-8226): > 100 µM (inactive)
- GI50 (HT-29): > 100 µM (inactive)
- GI50 (OVCAR-3): > 100 µM (inactive)
- GI50 (SK-MEL-28): > 100 µM (inactive)
- GI50 (SN12C): > 100 µM (inactive)
- GI50 (786-0): > 100 µM (inactive)
- GI50 (MDA-MB-231): > 100 µM (inactive)
- GI50 (SK-MEL-2): > 100 µM (inactive)
- GI50 (MCF7): 48.1 µM (inactive)
- GI50 (ACHN): > 100 µM (inactive)

Structure (SMILES): CC(NC1=CC(=O)c2ncccc2C1=O)C(O)c1ccccc1 (stereo not given)
- GI50 (TK-10): 38 µM (inactive)
- GI50 (COLO 205): 16 µM (inactive)
- GI50 (OVCAR-5): 15.5 µM (inactive)
- GI50 (T47D): 21.5 µM (inactive)
- GI50 (CAKI-1): 6.78 µM (inactive)
- GI50 (NCI/ADR-RES): 8.15 µM (inactive)
- GI50 (UO-31): 2.95 µM (inactive)
- GI50 (MOLT-4): 8.63 µM (inactive)
- GI50 (A549): 3.03 µM (inactive)
- GI50 (RPMI-8226): 13.4 µM (inactive)
- GI50 (HT-29): 11.5 µM (inactive)
- GI50 (OVCAR-3): 2.45 µM (inactive)
- GI50 (SK-MEL-28): 3.32 µM (inactive)
- GI50 (SN12C): 5.18 µM (inactive)
- GI50 (786-0): 8.69 µM (inactive)
- GI50 (MDA-MB-231): 2.41 µM (inactive)
- GI50 (SK-MEL-2): 3.55 µM (inactive)
- GI50 (IGROV-1): 3.67 µM (inactive)
- GI50 (MCF7): 2.31 µM (inactive)
- GI50 (ACHN): 7 µM (inactive)

Structure (SMILES): COc1nc(N)c(/N=C/C(OC(C)=O)C(OC(C)=O)C(COC(C)=O)OC(C)=O)c(=O)n1C (stereo not given)
- GI50 (TK-10): > 100 µM (inactive)
- GI50 (COLO 205): > 100 µM (inactive)
- GI50 (OVCAR-5): > 100 µM (inactive)
- GI50 (T47D): > 100 µM (inactive)
- GI50 (CAKI-1): > 100 µM (inactive)
- GI50 (NCI/ADR-RES): > 100 µM (inactive)
- GI50 (UO-31): > 100 µM (inactive)
- GI50 (MOLT-4): > 100 µM (inactive)
- GI50 (A549): > 100 µM (inactive)
- GI50 (RPMI-8226): > 100 µM (inactive)
- GI50 (HT-29): > 100 µM (inactive)
- GI50 (OVCAR-3): > 100 µM (inactive)
- GI50 (SK-MEL-28): > 100 µM (inactive)
- GI50 (SN12C): > 100 µM (inactive)
- GI50 (786-0): > 100 µM (inactive)
- GI50 (MDA-MB-231): > 100 µM (inactive)
- GI50 (SK-MEL-2): > 100 µM (inactive)
- GI50 (IGROV-1): > 100 µM (inactive)
- GI50 (MCF7): > 100 µM (inactive)
- GI50 (ACHN): > 100 µM (inactive)

Structure (SMILES): CSc1ccsc1-c1sc(-c2cc(SC)c(-c3sc(-c4cc(SC)c(-c5sccc5SC)s4)cc3SC)s2)cc1SC
- GI50 (TK-10): > 100 µM (inactive)
- GI50 (COLO 205): 33.4 µM (inactive)
- GI50 (OVCAR-5): > 100 µM (inactive)
- GI50 (T47D): 28.2 µM (inactive)
- GI50 (CAKI-1): 17.2 µM (inactive)
- GI50 (NCI/ADR-RES): 45.7 µM (inactive)
- GI50 (MOLT-4): 18 µM (inactive)
- GI50 (A549): 90.8 µM (inactive)
- GI50 (RPMI-8226): 3.44 µM (inactive)
- GI50 (HT-29): 93.5 µM (inactive)
- GI50 (OVCAR-3): 49.8 µM (inactive)
- GI50 (SK-MEL-28): > 100 µM (inactive)
- GI50 (SN12C): 42.3 µM (inactive)
- GI50 (786-0): 15.3 µM (inactive)
- GI50 (MDA-MB-231): > 100 µM (inactive)
- GI50 (SK-MEL-2): > 100 µM (inactive)
- GI50 (IGROV-1): > 100 µM (inactive)
- GI50 (MCF7): 57.1 µM (inactive)
- GI50 (ACHN): 32.9 µM (inactive)

Structure (SMILES): CC(=O)c1c(C)cc2cccc(OC3OC(CO)C(O)C(O)C3O)c2c1O.CC1OC(O)C(O)C(O)C1O (stereo not given)
- GI50 (TK-10): > 100 µM (inactive)
- GI50 (COLO 205): > 100 µM (inactive)
- GI50 (OVCAR-5): > 100 µM (inactive)
- GI50 (T47D): > 100 µM (inactive)
- GI50 (CAKI-1): > 100 µM (inactive)
- GI50 (NCI/ADR-RES): > 100 µM (inactive)
- GI50 (MOLT-4): > 100 µM (inactive)
- GI50 (A549): > 100 µM (inactive)
- GI50 (RPMI-8226): > 100 µM (inactive)
- GI50 (HT-29): > 100 µM (inactive)
- GI50 (OVCAR-3): > 100 µM (inactive)
- GI50 (SK-MEL-28): > 100 µM (inactive)
- GI50 (SN12C): > 100 µM (inactive)
- GI50 (786-0): > 100 µM (inactive)
- GI50 (MDA-MB-231): > 100 µM (inactive)
- GI50 (SK-MEL-2): > 100 µM (inactive)
- GI50 (IGROV-1): > 100 µM (inactive)
- GI50 (MCF7): > 100 µM (inactive)
- GI50 (ACHN): > 100 µM (inactive)

Structure (SMILES): C=C1[C@H]2O[C@H]2[C@@H](OC(C)=O)[C@@]2(C)[C@@H](OC(C)=O)C[C@@H](OC(=O)CCC)[C@@](C)(O)[C@@H]2[C@@H](OC(C)=O)[C@]2(O)[C@@H](C)C(=O)O[C@H]2[C@H]1Cl
- GI50 (TK-10): 0.959 µM (active)
- GI50 (COLO 205): > 100 µM (inactive)
- GI50 (OVCAR-5): > 100 µM (inactive)
- GI50 (T47D): > 100 µM (inactive)
- GI50 (CAKI-1): > 100 µM (inactive)
- GI50 (NCI/ADR-RES): > 100 µM (inactive)
- GI50 (UO-31): > 100 µM (inactive)
- GI50 (MOLT-4): > 100 µM (inactive)
- GI50 (A549): > 100 µM (inactive)
- GI50 (RPMI-8226): > 100 µM (inactive)
- GI50 (HT-29): > 100 µM (inactive)
- GI50 (OVCAR-3): > 100 µM (inactive)
- GI50 (SK-MEL-28): > 100 µM (inactive)
- GI50 (SN12C): > 100 µM (inactive)
- GI50 (786-0): > 100 µM (inactive)
- GI50 (MDA-MB-231): > 100 µM (inactive)
- GI50 (SK-MEL-2): > 100 µM (inactive)
- GI50 (MCF7): > 100 µM (inactive)
- GI50 (ACHN): > 100 µM (inactive)

From ChEMBL document CHEMBL1201862, “PubChem BioAssay data set” (2004)
